{"source": "patent US9499486B2", "about": "“Kinase inhibitor” (RESPIVERT LIMITED, priority 2014, dated 2016)", "key": {"non-mutant kinases": {"system": "non-mutant kinases", "assay_type": "binding", "conditions": "for number of individual kinase hits, S(1): % Ctrl <1; for number of individual kinase hits, S(10): % Ctrl <10; for number of individual kinase hits, S(35): % Ctrl <35", "source_text": "These assays may be conducted by DiscoverX (formerly Ambit; San Diego, Calif.)."}, "Jurkat cells": {"system": "Jurkat cells", "assay": "Cell cytotoxicity assay (assay r)", "assay_type": "cell-based, human", "conditions": "24 hours", "protocol": "1×10^5 Jurkat cells (immortalised human T lymphocytes) are added to the appropriate number of wells of a 96 well plate in 100 μL of media (RPMI supplemented with 10% foetal bovine serum). 1 μL of DMSO control (final concentration 1.0% v/v) or test compound (final concentration 20, 5 or 1 μg/mL) is added to the wells and incubated at 37° C., 5% CO2. After 24 hours, the plate is centrifuged at 1200 rpm for 3 minutes and the supernatant discarded. Cells are then resuspended in 150 μL (final concentration 7.5 μg/mL) of propidium iodide (PI) in PBS and incubated at 37° C., 5% CO2 for 15 minutes. After 15 minutes, cells are analysed by flow cytometry (BD accuri) using the FL3 window. The % viability is calculated as the % of cells that are PI negative in the test wells normalised to the DMSO control."}, "[1]": {"assay": "Solubility in fasted-state simulated colonic fluid (FaSSCoF)", "assay_type": "physicochemical", "conditions": "pH 6.5, 25° C., 24 h; for solubility thermodynamic at 24 h: fasted-state simulated colonic fluid (FaSSCoF), 25 °C, pH 6.5, fassgf or other biorelevant, thermodynamic from solid", "protocol": "The solubility of the compound of the invention in FaSSCoF at pH 6.5 is determined using a modification of a previously-reported procedure (Vertzoni, M., et al. Pharm. Res. 2010, 27, 2187-2196). In place of the bile salt extract employed in the original procedure (which extract is no longer available), the modified procedure uses a mixture of sodium taurochlorate (0.15 g), glycocholic acid (0.15 g), ursodeoxycholic acid (0.05 g), cholic acid (0.05 g), and glycodeoxycholic acid (0.05 g). These five bile acids are ground together with a mortar and pestle to produce a fine white powder that is incorporated into the FaSSCoF, as outlined below.\nFaSSCoF medium: Tris(hydroxymethyl)aminomethane (Tris; 0.275 g) and maleic acid (0.44 g) are dissolved in water (35 mL) to give a solution whose pH is adjusted to 6.5 by treatment with 0.5M NaOH (ca. 12 mL). The solution is then made up to 50 mL with water. A portion of this Tris/maleate buffer solution (ca. 25 mL) is added to a 0.5 L round-bottomed flask, before being treated with 0.00565 g of the bile acid mixture described above. Solutions of phosphatidylcholine (0.0111 g) in DCM (0.15 mL) and palmitic acid (0.0013 g) in DCM (0.15 mL) are added, then the organic solvent is evaporated off under reduced pressure at 40° C. until a clear solution, with no perceptible DCM odour, is achieved. The volume of the evaporated solution is adjusted to 50 mL by addition of the remainder of Tris/maleate buffer, then BSA (0.115 g) is added, before being dissolved by gentle agitation.\nSolubility Determination: Test compounds are suspended in the pH 6.5 FaSSCoF medium to give a maximum final concentration of 2-10 mg/mL. The suspensions are equilibrated at 25° C. for 24 h, before being filtered through a glass fibre C filter. The filtrates are then diluted as appropriate for injection and quantification by HPLC with reference to a standard. Different volumes of the standard, diluted and undiluted sample solutions are injected and the solubilities are calculated using the peak areas determined by integration of the peak found at the same retention time as the principal peak in the standard injection."}, "[2]": {"assay": "Stability of pharmaceutical formulations (1 mg/mL solutions)", "assay_type": "physicochemical", "conditions": "for Original Purity: 1 mg/mL in pH 7.2 phosphate buffer, 4.5% mannitol, 3% polyoxyl 40 stearate, before storage; for Osmolality / pH: 1 mg/mL stock solution; for Purity at week n = 1 / Purity at week n = 2 / Purity at week n = 4: 1 mg/mL solution", "protocol": "The samples were sonicated to achieve clear solutions having the following properties: Osmolality (mOsm/kg): 310 (Na), 314 (HCl); pH: 7.00 (Na), 7.05 (HCl). 0.5 mL of the stock solutions were diluted to 1 mL with 20% DMSO in water & injected for purity analysis by HPLC. The remaining stock solutions were then split into aliquots of 0.5 mL in HPLC vials, and stored at various conditions in duplicate. Samples were stored at 5 and 25° C., before being analysed by HPLC at 1, 2 and 4 weeks. Separate samples were stored at 40° C. and analysed at 4 weeks."}, "[3]": {"assay": "Systemic pharmacokinetics and total colon tissue distribution after single oral administration", "assay_type": "in vivo, mouse", "conditions": "male, C57BL/6, mouse, mice, oral 5 mg/kg, compound 1 measured", "protocol": "Studies were conducted by Sai Life Sciences (Hinjewadi, Pune, India) to investigate the systemic pharmacokinetics and total colon tissue distribution of the compound of the invention. In particular, pharmacokinetic studies were carried out in male C57BL/6 mice following a single oral administration of the compound."}, "[4]": {"conditions": "read-out: pH 6.5 FaSSCoF Solubility Run 1"}, "[5]": {"conditions": "listed as Example 1, hydrochloride salt"}, "[6]": {"conditions": "stored at 5 ° C., listed as Example 1, hydrochloride salt"}, "[7]": {"conditions": "stored at 25 ° C., listed as Example 1, hydrochloride salt"}, "[8]": {"conditions": "plasma, read-out: Mean plasma concentration"}, "[9]": {"conditions": "total colon, read-out: Mean total colon level"}, "[10]": {"conditions": "listed as Example 1, sodium salt"}, "[11]": {"conditions": "stored at 5 ° C., listed as Example 1, sodium salt"}, "[12]": {"conditions": "stored at 25 ° C., listed as Example 1, sodium salt"}}, "note": "Where “and” joins values, the source holds several entries; their conditions need not be identical. Identical values can stand only once. Counter-ions that a name gives are not always drawn. Like-named read-outs stand apart in the source and are kept apart here.", "data": [{"smiles": "COCC(=O)Nc1cc(Oc2ccc(NC(=O)Nc3cc(C(C)(C)C)nn3-c3ccc(C)cc3)c3ccccc23)ccn1", "note": "[Reference Compound, reference compound]", "values": [{"measurement": "number of individual kinase hits, S(1)", "setting": "non-mutant kinases; 50 nM", "value": 7}, {"measurement": "number of individual kinase hits, S(10)", "setting": "non-mutant kinases; 50 nM", "value": 32}, {"measurement": "number of individual kinase hits, S(35)", "setting": "non-mutant kinases; 50 nM", "value": 67}, {"measurement": "number of individual kinase hits, S(1)", "setting": "non-mutant kinases; 500 nM", "value": 45}, {"measurement": "number of individual kinase hits, S(10)", "setting": "non-mutant kinases; 500 nM", "value": 105}, {"measurement": "number of individual kinase hits, S(35)", "setting": "non-mutant kinases; 500 nM", "value": 143}, {"measurement": "% Viability at 1 μg/mL", "setting": "Jurkat cells; 1 μg/mL", "value": 23.5, "unit": "%"}, {"measurement": "% Viability at 5 μg/mL", "setting": "Jurkat cells; 5 μg/mL", "value": 18.9, "unit": "%"}, {"measurement": "% Viability at 20 μg/mL", "setting": "Jurkat cells; 20 μg/mL", "value": 17.3, "unit": "%"}]}, {"smiles": "COc1cc(Nc2cc(Oc3ccc(NC(=O)Nc4cc(C(C)(C)C)cc(NS(C)(=O)=O)c4OC)c4ccccc34)ccn2)ccc1C(=O)O", "note": "[1 (hydrochloride salt), 4-((4-((4-(3-(5-(tert-Butyl)-2-methoxy-3-(methylsulfonamido)phenyl)ureido)naphthalen-1-yl)oxy)pyridin-2-yl)amino)-2-methoxybenzoic acid]", "values": [{"measurement": "solubility thermodynamic at 24 h", "setting": "[1]; [4]", "value": 16, "unit": "µg/mL"}, {"measurement": "pH 6.5 FaSSCoF Solubility Run 2", "setting": "[1]", "value": 0.015, "unit": "mg/mL"}, {"measurement": "Original Purity", "setting": "[2]; [5]", "value": 98.1, "unit": "%"}, {"measurement": "Osmolality", "setting": "[2]; [5]", "value": 314, "unit": "mOsm/kg"}, {"measurement": "pH", "setting": "[2]; [5]", "value": 7.05}, {"measurement": "Purity at week n = 1", "setting": "[2]; [6]", "value": 98.2, "unit": "%"}, {"measurement": "Purity at week n = 2", "setting": "[2]; [6]", "value": "98.1% and 98.0%"}, {"measurement": "Purity at week n = 4", "setting": "[2]; [6]", "value": "97.9% and 98.0%"}, {"measurement": "Purity at week n = 1", "setting": "[2]; [7]", "value": 98.0, "unit": "%"}, {"measurement": "Purity at week n = 2", "setting": "[2]; [7]", "value": "97.7% and 97.6%"}, {"measurement": "Purity at week n = 4", "setting": "[2]; [7]", "value": "97.2% and 97.4%"}, {"measurement": "Purity at week n = 4", "setting": "[2]; stored at 40 ° C., listed as Example 1, hydrochloride salt", "value": "79.2% and 80.4%"}]}, {"smiles": "C#Cc1cc(Nc2nccc(Oc3ccc(NC(=O)Nc4cc(C(C)(C)C)nn4-c4ccc(C)cc4)c4ccccc34)n2)cc(C(=O)NCCOCCOCCOC)c1", "note": "[Reference Compound A, 3-((4-((4-(3-(3-(tert-butyl)-1-(p-tolyl)-1H-pyrazol-5-yl)ureido)naphthalen-1-yl)oxy)pyrimidin-2-yl)amino)-5-ethynyl-N-(2-(2-(2-methoxyethoxy)ethoxy)ethyl)benzamide, reference compound]", "values": [{"measurement": "solubility thermodynamic at 24 h", "setting": "[1]; [4]", "value": "< 1", "unit": "µg/mL"}, {"measurement": "solubility thermodynamic at 24 h", "setting": "[1]; read-out: pH 6.5 FaSSCoF Solubility Run 2", "value": "< 1", "unit": "µg/mL"}]}, {"smiles": "COc1cc(Nc2cc(Oc3ccc(NC(=O)Nc4cc(C(C)(C)C)cc(NS(C)(=O)=O)c4OC)c4ccccc34)ccn2)ccc1C(=O)O", "note": "[1 (sodium salt), 4-((4-((4-(3-(5-(tert-Butyl)-2-methoxy-3-(methylsulfonamido)phenyl)ureido)naphthalen-1-yl)oxy)pyridin-2-yl)amino)-2-methoxybenzoic acid]", "values": [{"measurement": "solubility thermodynamic at 24 h", "setting": "[1]; [4]", "value": 31, "unit": "µg/mL"}, {"measurement": "pH 6.5 FaSSCoF Solubility Run 2", "setting": "[1]", "value": 0.032, "unit": "mg/mL"}, {"measurement": "pH 6.5 FaSSCoF Solubility Run 3", "setting": "[1]", "value": 0.020, "unit": "mg/mL"}, {"measurement": "pH 6.5 FaSSCoF Solubility Run 4", "setting": "[1]", "value": 0.025, "unit": "mg/mL"}, {"measurement": "concentration at 0.5 h", "setting": "[3]; [8]", "value": 44.9, "unit": "ng/mL"}, {"measurement": "concentration at 1 h", "setting": "[3]; [8]", "value": 49.2, "unit": "ng/mL"}, {"measurement": "concentration at 2 h", "setting": "[3]; [8]", "value": 13, "unit": "ng/mL"}, {"measurement": "concentration at 4 h", "setting": "[3]; [8]", "value": 5.2, "unit": "ng/mL"}, {"measurement": "concentration at 6 h", "setting": "[3]; [8]", "value": 1.9, "unit": "ng/mL"}, {"measurement": "concentration at 8 h", "setting": "[3]; [8]", "value": 0.6, "unit": "ng/mL"}, {"measurement": "concentration at 12 h", "setting": "[3]; [8]", "value": 5.3, "unit": "ng/mL"}, {"measurement": "concentration at 24 h", "setting": "[3]; [8]", "value": 0, "unit": "ng/mL"}, {"measurement": "concentration at 0.5 h", "setting": "[3]; [9]", "value": 4.3, "unit": "ng/g"}, {"measurement": "concentration at 1 h", "setting": "[3]; [9]", "value": 9.3, "unit": "ng/g"}, {"measurement": "concentration at 2 h", "setting": "[3]; [9]", "value": 52.4, "unit": "ng/g"}, {"measurement": "concentration at 4 h", "setting": "[3]; [9]", "value": 10400, "unit": "ng/g"}, {"measurement": "concentration at 6 h", "setting": "[3]; [9]", "value": 4050, "unit": "ng/g"}, {"measurement": "concentration at 8 h", "setting": "[3]; [9]", "value": 12900, "unit": "ng/g"}, {"measurement": "concentration at 12 h", "setting": "[3]; [9]", "value": 535, "unit": "ng/g"}, {"measurement": "concentration at 24 h", "setting": "[3]; [9]", "value": 41.4, "unit": "ng/g"}, {"measurement": "Original Purity", "setting": "[2]; [10]", "value": "98.6% and 98.5%"}, {"measurement": "Osmolality", "setting": "[2]; [10]", "value": 310, "unit": "mOsm/kg"}, {"measurement": "pH", "setting": "[2]; [10]", "value": 7.00}, {"measurement": "Purity at week n = 1", "setting": "[2]; [11]", "value": "98.2% and 98.4%"}, {"measurement": "Purity at week n = 2", "setting": "[2]; [11]", "value": "98.4% and 98.5%"}, {"measurement": "Purity at week n = 4", "setting": "[2]; [11]", "value": "98.3% and 98.4%"}, {"measurement": "Purity at week n = 1", "setting": "[2]; [12]", "value": "98.4% and 98.5%"}, {"measurement": "Purity at week n = 2", "setting": "[2]; [12]", "value": 98.1, "unit": "%"}, {"measurement": "Purity at week n = 4", "setting": "[2]; [12]", "value": 97.6, "unit": "%"}, {"measurement": "Purity at week n = 4", "setting": "[2]; stored at 40 ° C., listed as Example 1, sodium salt", "value": "76.0% and 73.7%"}]}]}
